Like-named read-outs stand apart in the source and are kept apart here.
Tested on: HDAC
Assay: Inhibitory activity against HDAC (BIOMOL Quantizyme Assay system, Fluor de Lys substrate)
Assay type: biochemical
Conditions: HeLa nuclear extract as source of HDAC enzymes, enzyme reaction 1 hr
Method: HDAC activity was analyzed using BIOMOL Quantizyme™ Assay system which comprised two steps of 1) enzyme reaction between HDAC and a substrate and 2) determination of the level of HDAC inhibitory activity.
(§1) 0.5 μl of HeLa nuclear organic layer (10 μM) (a source of HDAC enzymes) was then added thereto to a final concentration of 100 nM. The enzyme reaction was carried out for 1 hr.
Subsequently, in step 2), 2 μM tricostatin A was added to 50 μl of Flour de Lys™ developer, followed by allowing the mixture to react at room temperature for 15 minutes. The light excited at 355 nm and emitted at 460 nm from the fluorophore was measured with a fluorometric plate reader. The intensity of the fluorescence increases as the enzyme activity is higher. The HDAC inhibitory activity of each of the test compounds was determined and compared with that of the control.
0.5 μl of HeLa nuclear organic layer (10 μM) (a source of HDAC enzymes) was then added thereto to a final concentration of 100 nM, The enzyme reaction was carried out for 1 hr.
as §1, §1

[1] = Table 1, formula (1) series, read-out: IC50 (HDAC inhibitory concentration)
[2] = Table 3, formula (2) series, read-out: IC50 (HDAC inhibitory concentration)
[3] = Table 5, formula (3) series, read-out: Inhibitory conc. (IC50, μM/ml)
[4] = Table 7, formula (4) series, read-out: HDAC Inhibitory conc. (IC50, μM/ml)

For `O=C(NCCCn1ccnc1)/C(=C/c1ccc(C(=O)NO)cc1)COc1cccc2ccccc12` [Example 1-2, (E)-4-(3-(3-(1H-Imidazol-1-yl)propylamino)-2-((naphthalen-1-yloxy)methyl)-3-oxopropenyl)-N-hydroxybenzamide], the IC50 [1] was 0.028 µM.

In the case of `COc1ccc(CCNC(=O)/C(=C/c2ccc(C(=O)NO)cc2)COc2cccc3ccccc23)cc1` [Example 1-3, (E)-4-(3-(4-Methoxyphenethylamino)-2-((naphthalen-1-yloxy)methyl)-3-oxoprop-1-enyl)-N-hydroxybenzamide], the IC50 [1] is reported as 0.08 µM.

`CC(C)N(CCNC(=O)/C(=C/c1ccc(C(=O)NO)cc1)COc1cccc2ccccc12)C(C)C` [Example 1-5] was tested, and the IC50 [1] was 0.014 µM.

With `O=C(NCC1CCCO1)C(=Cc1ccc(C(=O)NO)cc1)COc1cccc2ccccc12` (stereo not shown) [Example 1-9, (E)-4-(3-(Tetrahydrofuran-2-yl)methylamino)-2-((naphthalen-1-yloxy)methyl)-3-oxoprop-1-enyl)-N-hydroxybenzamide] the IC50 [1] was 0.06 µM.

For `O=C(NCCCN1CCCC1=O)/C(=C/c1ccc(C(=O)NO)cc1)COc1cccc2ccccc12` [Example 1-11, (E)-4-(3-(3-(2-Oxopyrrolidin-1-yl)propylamino)-2-((naphthalen-1-yloxy)methyl)-3-oxoprop-1-enyl)-N-hydroxy-benzamide], the IC50 [1] was 0.04 µM.

For `COCCNC(=O)/C(=C/c1ccc(C(=O)NO)cc1)COc1cccc2ccccc12` [Example 1-14, (E)-4-(3-(2-Methoxyethylamino)-2-((naphthalen-1-yloxy)methyl)-3-oxoprop-1-enyl)-N-hydroxybenzamide], the IC50 [1] was 0.03 µM.

Work on `O=C(NC1CCCCC1)/C(=C/c1ccc(C(=O)NO)cc1)COc1cccc2ccccc12` [Example 1-15, (E)-4-(3-(Cyclohexylamino)-2-((naphthalen-1-yloxy)methyl)-3-oxoprop-1-enyl)-N-hydroxybenzamide] yielded an IC50 [1] of 0.04 µM.

In the case of `O=C(NCc1cccs1)/C(=C/c1ccc(C(=O)NO)cc1)COc1cccc2ccccc12` [Example 1-16, (E)-4-(3-(Thiophen-2-ylmethylamino)-2-((naphthalen-1-yloxy)methyl)-3-oxoprop-1-enyl)-N-hydroxybenzamide], the IC50 [1] is reported as 0.01 µM.

Work on `O=C(NCCCN1CCOCC1)/C(=C/c1ccc(C(=O)NO)cc1)COc1cccc2ccccc12` [Example 1-18, (E)-4-(3-(3-Morpholinopropylamino)-2-((naphthalen-1-yloxy)methyl)-3-oxoprop-1-enyl)-N-hydroxybenzamide] yielded an IC50 [1] of 0.021 µM.

For `CCOCCCNC(=O)/C(=C/c1ccc(C(=O)NO)cc1)COc1cccc2ccccc12` [Example 1-21, (E)-4-(3-(3-Ethoxypropylamino)-2-((naphthalen-1-yloxy)methyl)-3-oxoprop-1-enyl)-N-hydroxybenzamide], the IC50 [1] was 0.021 µM.

`O=C(CCCC/C=C(\COc1cccc2ccccc12)C(=O)NCCc1ccc(O)cc1)NO` [Example 2-2, (E)-N8-Hydroxy-N1-(4-hydroxyphenethyl)-2-((naphthalen-1-yloxy)methyl)-2-octenediamide] gave an IC50 [2] of 0.009 µM.

Work on `COCC(C)NC(=O)/C(=C/CCCCC(=O)NO)COc1cccc2ccccc12` (stereo not shown) [Example 2-5, (E)-N8-Hydroxy-N1-(1-methoxypropan-2-yl)-2-((naphthalen-1-yloxy)methyl)-2-octenediamide] yielded an IC50 [2] of 0.017 µM.

`O=C(CCCC/C=C(\COc1cccc2ccccc12)C(=O)NCCc1ccc(F)cc1)NO` [Example 2-7, (E)-N1-(4-Fluorophenethyl)-N8-hydroxy-2-((naphthalen-1-yloxy)methyl)-2-octenediamide] showed an IC50 [2] of 0.02 µM.

`O=C(CCCC/C=C(\COc1cccc2ccccc12)C(=O)NCCC1=CCCCC1)NO` [Example 2-9, (E)-N1-(2-Cyclohexenylethyl)-N8-hydroxy-2-((naphthalen-1-yloxy)methyl)-2-octenediamide] gave an IC50 [2] of 0.027 µM.

`O=C(CCCC/C=C(\COc1cccc2ccccc12)C(=O)NCCCN1CCCC1=O)NO` [Example 2-10, (E)-N8-Hydroxy-2-((naphthalen-1-yloxy)methyl)-N1-(3-(2-oxopyrrolidin-1-yl)propyl)-2-octenediamide] was tested, and the IC50 [2] was 0.016 µM.

With `O=C(CCCC/C=C(\COc1cccc2ccccc12)C(=O)NCc1ccc(OC(F)(F)F)cc1)NO` [Example 2-17, (E)-N8-Hydroxy-2-((naphthalen-1-yloxy)methyl)-N1-(4-(trifluoromethoxy)benzyl)-2-octenediamide] the IC50 [2] was 0.007 µM.

`O=C(CCCC/C=C(\COc1cccc2ccccc12)C(=O)NC1CCN(CC2CCCCC2)C1)NO` (stereo not shown) [Example 2-18, (E)-N1-(1-(Cyclohexylmethyl)pyrrolidin-3-yl)-N8-hydroxy-2-((naphthalen-1-yloxy)methyl)-2-octenediamide] was tested, and the IC50 [2] was 0.01 µM.

With `O=C(CCCC/C=C(\COc1cccc2ccccc12)C(=O)NC1CCN(C(=O)C2CCCCC2)C1)NO` (stereo not shown) [Example 2-22, (E)-N1-(1-(Cyclohexanecarbonyl)pyrrolidin-3-yl)-N8-hydroxy-2-((naphthalen-1-yloxy)methyl)-2-octenediamide] the IC50 [2] was 0.022 µM.

`O=C(CCCC/C=C(\COc1cccc2ccccc12)C(=O)NC1CCNC1)NO` (stereo not shown) [Example 2-24, (E)-N8-Hydroxy-2-((naphthalen-1-yloxy)methyl)-N1-(pyrrolidin-3-yl)-2-octenediamide] showed an IC50 [2] of 0.012 µM.

In the case of `CCN1CCC(NC(=O)/C(=C/CCCCC(=O)NO)COc2cccc3ccccc23)CC1` [Example 2-28, (E)-N1-(1-Ethylpiperidin-4-yl)-N8-hydroxy-2-((naphthalen-1-yloxy)methyl)-2-octenediamide], the IC50 [2] is reported as 0.013 µM.

With `CC1CCCCN1CCCNC/C(=C/CCCCC(=O)NO)COc1cccc2ccccc12` (stereo not shown) [Example 3-5, (Z)—N-Hydroxy-8-(3-(2-methylpiperidin-1-yl)propylamino)-7-((naphthalen-1-yloxy)methyl)oct-6-enamide] the IC50 [3] was 0.062 µM.

In the case of `CN(C)CCCNC/C(=C/CCCCC(=O)NO)COc1cccc2ccccc12` [Example 3-6, (Z)-8-(3-(Dimethylamino)propylamino)-N-hydroxy-7-((naphthalen-1-yloxy)methyl)oct-6-enamide], the IC50 [3] is reported as 0.002 µM.

For `CCN(CC)CCCNC/C(=C/CCCCC(=O)NO)COc1cccc2ccccc12` [Example 3-12, (Z)-8-(3-(Diethylamino)propylamino)-N-hydroxy-7-((naphthalen-1-yloxy)methyl)oct-6-enamide], the IC50 [3] was 0.113 µM.

In the case of `CC(C)N(CCNC/C(=C/CCCCC(=O)NO)COc1cccc2ccccc12)C(C)C` [Example 3-13], the IC50 [3] is reported as 0.042 µM.

`O=C(NO)c1ccc(/C=C(/CNCc2ccc(OC(F)(F)F)cc2)COc2cccc3ccccc23)cc1` [Example 4-3, (Z)—N-hydroxy-4-(3-(naphthalen-1-yloxy)-2-((4-(trifluoromethoxy)benzylamino)methyl)prop-1-enyl)-benzamide] showed an IC50 [4] of 0.14 µM.

Molecule `CC(C)(C)OC(=O)N1CCC(NC/C(=C/c2ccc(C(=O)NO)cc2)COc2cccc3ccccc23)C1` (stereo not shown) [Example 4-4, t-butyl (Z)-3-(3-(4-(hydroxycarbamoyl)phenyl)-2-((naphthalen-1-yloxy)methyl)allylamino)-pyrrolidine-1-carboxylate] has an IC50 [4] of 0.208 µM.

`O=C(NO)c1ccc(/C=C(/CNC2CCNC2)COc2cccc3ccccc23)cc1` (stereo not shown) [Example 4-5, (Z)—N-hydroxy-4-(3-(naphthalen-1-yloxy)-2-((pyrrolidin-3-ylamino)methyl)prop-1-enyl)-benzamide] gave an IC50 [4] of 0.02 µM.

Work on `O=C(NO)c1ccc(/C=C(/CNC2CCN(C(=O)C3CCCCC3)C2)COc2cccc3ccccc23)cc1` (stereo not shown) [Example 4-6, (Z)-4-(3-(1-(cyclohexylcarbonyl)pyrrolidin-3-ylamino)-2-((naphthalen-1-yloxy)-methyl)prop-1-enyl)-N-hydroxybenzamide] yielded an IC50 [4] of 0.061 µM.

For `O=C(NO)c1ccc(/C=C(/CNC2CCN(CC3CCCCC3)C2)COc2cccc3ccccc23)cc1` (stereo not shown) [Example 4-8, (Z)-4-(3-(1-(cyclohexylmethyl)pyrrolidin-3-ylamino)-2-((naphthalen-1-yloxy)-methyl)prop-1-enyl)-N-hydroxybenzamide], the IC50 [4] was 0.045 µM.

`O=C(NO)c1ccc(/C=C(/CNC2CCN(Cc3ccccc3)C2)COc2cccc3ccccc23)cc1` (stereo not shown) [Example 4-9, (Z)-4-(3-(1-benzylpyrrolidin-3-ylamino)-2-((naphthalen-1-yloxy)methyl)prop-1-enyl)-N-hydroxybenzamide] showed an IC50 [4] of 0.046 µM.

With `O=C(NO)c1ccc(/C=C(/CNC2CCN(C3CCCCC3)C2)COc2cccc3ccccc23)cc1` (stereo not shown) [Example 4-12, (Z)-4-(3-(1-cyclohexylpyrrolidin-3-ylamino)-2-((naphthalen-1-yloxy)methyl)prop-1-enyl)-N-hydroxybenzamide] the IC50 [4] was 0.04 µM.

Work on `CN1CCCC1CCNC/C(=C/c1ccc(C(=O)NO)cc1)COc1cccc2ccccc12` (stereo not shown) [Example 4-14, (Z)—N-hydroxy-4-(3-(2-(1-methylpyrrolidin-2-yl)ethylamino)-2-((naphthalen-1-yloxy)methyl)prop-1-enyl)benzamide] yielded an IC50 [4] of 0.013 µM.

`O=C(NO)c1ccc(/C=C(/CNC2CCCCC2)COc2cccc3ccccc23)cc1` [Example 4-21, (Z)-4-(3-(cyclohexylamino)-2-((naphthalen-1-yloxy)methyl)prop-1-enyl)-N-hydroxybenzamide] showed an IC50 [4] of 0.03 µM.

“(E)-(3-(3-(2-Methylpiperidin-1-yl)propylamino)-2-((naphthalen-1-yloxy)methyl)-3-oxoprop-1-enyl)-N-hydroxybenzamide [Example 1-19]” gave an IC50 [1] of 0.009 µM.

— patent US8053435B2, “Naphthalenyloxypropenyl derivatives having inhibitory activity against histone deacetylase and pharmaceutical composition comprising the same” (Korea Research Institute of Chemical Technology, priority 2006, dated 2011)
